Results from patent US20240262819A1, “NOVEL COMPOUNDS HAVING INHIBITORY ACTIVITY AGAINST GLUCOSYLCERAMIDE SYNTHASE OR PHARMACEUTICALLY ACCEPTABLE SALT THEREOF, PROCESSES FOR PREPARING THE SAME, AND PHARMACEUTICAL COMPOSITIONS COMPRISING THE SAME” (YUHAN CORPORATION, priority 2021, published 2024).
Where two headings read alike, the source gives them in different places.

Experiments:
[1] = biological target: glucosylceramide synthase (GCS) (Homo sapiens (Human), UniProt Q16739); test: Evaluation of inhibitory activities against GCS (A549 cell lysate, NBD C6-ceramide, HPLC); type: biochemical
Experimental: The inhibitory activities of the compounds of the present invention against GCS were evaluated, as follows, according to the method described in the known literature (Hayashi Y et al., A sensitive and reproducible assay to measure the activity of glucosylceramide synthase and lactosylceramide synthase using HPLC and fluorescent substrates, Analytical Biochemistry 345 (2005) 181-186). Ibiglustat, known as a GCS inhibitor, was used as a control.
After the cells attached to the culture dish were washed with phosphate buffered saline (PBS), the cells were scraped off with a cell scraper and then centrifuged (4000 rpm, 3 min, 4 °C) to collect the cells in a 50 ml tube. The cell pellets were suspended in a lysis buffer (50 mM HEPES, pH 7.3, containing 1× the protease/phosphatase inhibitor cocktail), lysed by sonication, and then the lysate was centrifuged (13000 rpm, 10 min, 4° C.). The obtained supernatant was used for the quantitative analysis of proteins. The amount of proteins was measured using the BCA protein assay kit, using bovine serum albumin as a standard.
Enzymatic reactions were initiated by sequentially adding the following reaction materials to a 96 deep-well plate. Thereafter, the enzymatic reactions were performed at 37° C. for 90 minutes.
The enzymatic reactions were stopped by adding 100 μl of chloroform/methanol (2:1, v/v). […] The lower layer (50 μl) was transferred to a new 96 deep-well plate and dried with a reduced concentrator.
Lipids were dissolved in 100 μl of isopropyl alcohol/n-hexane/H2O (55:44:1, v/v/v) and then transferred to a glass vial for HPLC (Agilent, 8004-HP-H/i3u). The sample (100 μl) was automatically loaded onto a normal-phase column (Intersil SIL 150A-5, 4.6×250 mm, GL Sciences, Japan) and then eluted at a flow rate of 2.0 ml/min with isopropyl alcohol/n-hexane/H2O (55:44:1, v/v/v). The fluorescence thereof was measured with a fluorescence detector (Agilent, 1260 FLD Spectra), using 470 nm and 530 nm as excitation and emission wavelengths, respectively.
Data analysis was performed by the following equations.
% Area (Sample)=Area (GlcCer)/[Area (Cer)+Area (GlcCer)]×100%
GCS activity=[Area (Sample)−Area (ibiglustat)]/[Area (DMSO)−Area (ibiglustat)]×100
The obtained % GCS activity data was analyzed with the software GraphPad Prism (Ver 5.01) to calculate the IC50 values.

[2] = test system: GM1 production in Jurkat cells; test: cells; type: cell-based

Chain of glucosylceramide synthase (GCS) (Q16739 whole entry): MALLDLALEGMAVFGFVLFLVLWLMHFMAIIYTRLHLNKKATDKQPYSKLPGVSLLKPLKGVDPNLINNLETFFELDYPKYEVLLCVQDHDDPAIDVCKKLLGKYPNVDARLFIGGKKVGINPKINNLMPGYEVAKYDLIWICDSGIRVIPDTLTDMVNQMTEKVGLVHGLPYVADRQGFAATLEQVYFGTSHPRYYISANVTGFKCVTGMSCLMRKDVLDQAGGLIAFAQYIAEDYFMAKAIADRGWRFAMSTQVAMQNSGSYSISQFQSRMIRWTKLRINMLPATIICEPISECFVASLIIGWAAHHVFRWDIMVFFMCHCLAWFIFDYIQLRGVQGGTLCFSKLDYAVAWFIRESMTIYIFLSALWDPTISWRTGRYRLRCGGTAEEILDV

CCOc1cc2c(cc1-c1ccc(CC)cc1)CC(C)(C)[C@H]2NC(=O)O[C@@H]1CN2CCC1CC2 [Example 127, (S)-quinuclidin-3-yl((R)-6-ethoxy-5-(4-ethylphenyl)-2,2-dimethyl-2,3-dihydro-1H-inden-1-yl)carbamate]
IC50 [1]: 1.82 nM | IC50 ([2]; Homo sapiens, Jurkat, 72 h): 8.02 nM

CC(C)COc1ccc(-c2cc3c(cc2F)[C@H](NC(=O)O[C@@H]2CN4CCC2CC4)C(C)(C)CC3)cc1 [Example 179, (S)-quinuclidin-3-yl((R)-7-fluoro-6-(4-isobutoxyphenyl)-2,2-dimethyl-1,2,3,4-tetrahydronaphthalen-1-yl)carbamate]
IC50 [1]: 0.19 nM | IC50 ([2]; Homo sapiens, Jurkat, 72 h): 0.22 nM

Cc1cc2c(cc1-c1ccc(OC(C)C)cc1)CC(C)(C)[C@H]2NC(=O)O[C@@H]1CN2CCC1CC2 [Example 122, (S)-quinuclidin-3-yl((R)-5-(4-isopropoxyphenyl)-2,2,6-trimethyl-2,3-dihydro-1H-inden-1-yl)carbamate]
IC50 [1]: 0.34 nM | IC50 ([2]; Homo sapiens, Jurkat, 72 h): 3.66 nM

CCOc1c(C)cc(-c2cc3c(cc2F)[C@H](NC(=O)O[C@@H]2CN4CCC2CC4)C(C)(C)CC3)cc1C [Example 195, (S)-quinuclidin-3-yl((R)-6-(4-ethoxy-3,5-dimethylphenyl)-7-fluoro-2,2-dimethyl-1,2,3,4-tetrahydronaphthalen-1-yl)carbamate]
IC50 [1]: 1.29 nM | IC50 ([2]; Homo sapiens, Jurkat, 72 h): 8.3 nM

CCCOc1ccc(-c2cc3c(cc2F)[C@H](NC(=O)O[C@@H]2CN4CCC2CC4)C(C)(C)C3)cc1C [Example 106, (S)-quinuclidin-3-yl((R)-6-fluoro-2,2-dimethyl-5-(3-methyl-4-propoxyphenyl)-2,3-dihydro-1H-inden-1-yl)carbamate]
IC50 [1]: 0.61 nM | IC50 ([2]; Homo sapiens, Jurkat, 72 h): 2.3 nM

CCOc1ccc(-c2ccc3c(c2)CC(C)(C)[C@H]3NC(=O)O[C@@H]2CN3CCC2CC3)cc1C [Example 46, (S)-quinuclidin-3-yl((R)-5-(4-ethoxy-3-methylphenyl)-2,2-dimethyl-2,3-dihydro-1H-inden-1-yl)carbamate]
IC50 [1]: 2.19 nM | IC50 ([2]; Homo sapiens, Jurkat, 72 h): 11.6 nM

CCOc1ccc(-c2cc3c(cc2F)[C@H](NC(=O)O[C@@H]2CN4CCC2CC4)C(C)(C)C3)cc1C [Example 105, (S)-quinuclidin-3-yl((R)-5-(4-ethoxy-3-methylphenyl)-6-fluoro-2,2-dimethyl-2,3-dihydro-1H-inden-1-yl)carbamate]
IC50 [1]: 0.72 nM | IC50 ([2]; Homo sapiens, Jurkat, 72 h): 8.2 nM

CC(C)Oc1cc(-c2ccc3c(c2)CC(C)(C)[C@H]3NC(=O)O[C@@H]2CN3CCC2CC3)ccc1Cl [Example 52, (S)-quinuclidin-3-yl((R)-5-(4-chloro-3-isopropoxyphenyl)-2,2-dimethyl-2,3-dihydro-1H-inden-1-yl)carbamate]
IC50 [1]: 8.27 nM | IC50 ([2]; Homo sapiens, Jurkat, 72 h): 36.7 nM

CCOc1cc2c(cc1-c1ccc(C(C)C)cc1)CC(C)(C)[C@H]2NC(=O)O[C@@H]1CN2CCC1CC2 [Example 129, (S)-quinuclidin-3-yl((R)-6-ethoxy-5-(4-isopropylphenyl)-2,2-dimethyl-2,3-dihydro-1H-inden-1-yl)carbamate]
IC50 [1]: 2.31 nM | IC50 ([2]; Homo sapiens, Jurkat, 72 h): 8.11 nM

CC(C)Oc1cc(-c2cc3c(cc2F)[C@H](NC(=O)O[C@@H]2CN4CCC2CC4)C(C)(C)C3)ccc1Cl [Example 111, (S)-quinuclidin-3-yl((R)-5-(4-chloro-3-isopropoxyphenyl)-6-fluoro-2,2-dimethyl-2,3-dihydro-1H-inden-1-yl)carbamate]
IC50 [1]: 7.13 nM | IC50 ([2]; Homo sapiens, Jurkat, 72 h): 76.2 nM

CC(C)c1cccc(-c2cc3c(cc2F)[C@H](NC(=O)O[C@@H]2CN4CCC2CC4)C(C)(C)CC3)c1 [Example 190, (S)-quinuclidin-3-yl((R)-7-fluoro-6-(3-isopropylphenyl)-2,2-dimethyl-1,2,3,4-tetrahydronaphthalen-1-yl)carbamate]
IC50 [1]: 0.72 nM | IC50 ([2]; Homo sapiens, Jurkat, 72 h): 1.9 nM

CCc1ccc(-c2cc3c(cc2F)[C@H](NC(=O)O[C@@H]2CN4CCC2CC4)C(C)(C)CC3)cc1 [Example 170, (S)-quinuclidin-3-yl((R)-6-(4-ethylphenyl)-7-fluoro-2,2-dimethyl-1,2,3,4-tetrahydronaphthalen-1-yl)carbamate]
IC50 [1]: 0.31 nM | IC50 ([2]; Homo sapiens, Jurkat, 72 h): 1.4 nM

CC(C)COc1cc(Cl)cc(-c2cc3c(cc2F)[C@H](NC(=O)O[C@@H]2CN4CCC2CC4)C(C)(C)C3)c1 [Example 112, (S)-quinuclidin-3-yl((R)-5-(3-chloro-5-isobutoxyphenyl)-6-fluoro-2,2-dimethyl-2,3-dihydro-1H-inden-1-yl)carbamate]
IC50 [1]: 1.03 nM | IC50 ([2]; Homo sapiens, Jurkat, 72 h): 10.6 nM

CC(C)(C)Oc1ccc(-c2cc3c(cc2F)[C@H](NC(=O)O[C@@H]2CN4CCC2CC4)C(C)(C)C3)c(Cl)c1 [Example 102, (S)-quinuclidin-3-yl((R)-5-(4-(tert-butoxy)-2-chlorophenyl)-6-fluoro-2,2-dimethyl-2,3-dihydro-1H-inden-1-yl)carbamate]
IC50 [1]: 0.19 nM | IC50 ([2]; Homo sapiens, Jurkat, 72 h): 1.6 nM

CCCOc1cccc(-c2ccc3c(c2)CCC(C)(C)[C@H]3NC(=O)O[C@@H]2CN3CCC2CC3)c1 [Example 159, (S)-quinuclidin-3-yl((R)-2,2-dimethyl-6-(3-propoxyphenyl)-1,2,3,4-tetrahydronaphthalen-1-yl)carbamate]
IC50 [1]: 4.28 nM | IC50 ([2]; Homo sapiens, Jurkat, 72 h): 1.7 nM

CC(C)Oc1c(F)cc(-c2ccc3c(c2)CC(C)(C)[C@H]3NC(=O)O[C@@H]2CN3CCC2CC3)cc1F [Example 37, (S)-quinuclidin-3-yl((R)-5-(3,5-difluoro-4-isopropoxyphenyl)-2,2-dimethyl-2,3-dihydro-1H-inden-1-yl)carbamate]
IC50 [1]: 1.94 nM | IC50 ([2]; Homo sapiens, Jurkat, 72 h): 2.2 nM

CCCCOc1c(C)cc(-c2ccc3c(c2)CCC(C)(C)[C@H]3NC(=O)O[C@@H]2CN3CCC2CC3)cc1C [Example 152, (S)-quinuclidin-3-yl((R)-6-(4-butoxy-3,5-dimethylphenyl)-2,2-dimethyl-1,2,3,4-tetrahydronaphthalen-1-yl)carbamate]
IC50 [1]: 1.65 nM | IC50 ([2]; Homo sapiens, Jurkat, 72 h): 8.3 nM

CC(C)COc1cccc(-c2ccc3c(c2)CCC(C)(C)[C@H]3NC(=O)O[C@@H]2CN3CCC2CC3)c1 [Example 163, (S)-quinuclidin-3-yl((R)-6-(3-isobutoxyphenyl)-2,2-dimethyl-1,2,3,4-tetrahydronaphthalen-1-yl)carbamate]
IC50 [1]: 8.05 nM | IC50 ([2]; Homo sapiens, Jurkat, 72 h): 1.3 nM

CCCc1ccc(-c2ccc3c(c2)CCC(C)(C)[C@H]3NC(=O)O[C@@H]2CN3CCC2CC3)cc1 [Example 140, (S)-quinuclidin-3-yl((R)-2,2-dimethyl-6-(4-propylphenyl)-1,2,3,4-tetrahydronaphthalen-1-yl)carbamate]
IC50 [1]: 0.29 nM | IC50 ([2]; Homo sapiens, Jurkat, 72 h): 2.5 nM

Cc1cc(-c2cc3c(cc2F)[C@H](NC(=O)O[C@@H]2CN4CCC2CC4)C(C)(C)CC3)cc(C)c1OC(C)C [Example 182, (S)-quinuclidin-3-yl((R)-7-fluoro-6-(4-isopropoxy-3,5-dimethylphenyl)-2,2-dimethyl-1,2,3,4-tetrahydronaphthalen-1-yl)carbamate]
IC50 [1]: 3.1 nM | IC50 ([2]; Homo sapiens, Jurkat, 72 h): 12.9 nM

CCc1ccc(-c2ccc3c(c2)CC(C)(C)[C@H]3NC(=O)O[C@@H]2CN3CCC2CC3)cc1F [Example 33, (S)-quinuclidin-3-yl((R)-5-(4-ethyl-3-fluorophenyl)-2,2-dimethyl-2,3-dihydro-1H-inden-1-yl)carbamate]
IC50 [1]: 0.97 nM | IC50 ([2]; Homo sapiens, Jurkat, 72 h): 7.3 nM

Cc1cc2c(cc1-c1ccc(OC(C)C)c(Cl)c1)CC(C)(C)[C@H]2NC(=O)O[C@@H]1CN2CCC1CC2 [Example 125, (S)-quinuclidin-3-yl((R)-5-(3-chloro-4-isopropoxyphenyl)-2,2,6-trimethyl-2,3-dihydro-1H-inden-1-yl)carbamate]
IC50 [1]: 2.17 nM | IC50 ([2]; Homo sapiens, Jurkat, 72 h): 10.8 nM

CCCOc1ccc(-c2cc3c(cc2OCC)[C@H](NC(=O)O[C@@H]2CN4CCC2CC4)C(C)(C)C3)cc1 [Example 133, (S)-quinuclidin-3-yl((R)-6-ethoxy-2,2-dimethyl-5-(4-propoxyphenyl)-2,3-dihydro-1H-inden-1-yl) carbamate]
IC50 ([1]; % GCS activity, A549 cell lysate, 37° C. for 90 minutes, read-out: IC50): 0.5 nM | IC50 ([2]; read-out: IC50): 2.63 nM

CCCc1cccc(-c2cc3c(cc2F)[C@H](NC(=O)O[C@@H]2CN4CCC2CC4)C(C)(C)CC3)c1 [Example 188, (S)-quinuclidin-3-yl((R)-7-fluoro-2,2-dimethyl-6-(3-propylphenyl)-1,2,3,4-tetrahydronaphthalen-1-yl)carbamate]
IC50 [1]: 0.84 nM | IC50 ([2]; Homo sapiens, Jurkat, 72 h): 2.7 nM

CCOc1ccc(-c2cc3c(cc2OCC)[C@H](NC(=O)O[C@@H]2CN4CCC2CC4)C(C)(C)C3)cc1 [Example 132, (S)-quinuclidin-3-yl((R)-6-ethoxy-5-(4-ethoxyphenyl)-2,2-dimethyl-2,3-dihydro-1H-inden-1-yl)carbamate]
IC50 [1]: 1.6 nM | IC50 ([2]; Homo sapiens, Jurkat, 72 h): 7.62 nM
